Marks after values point to notes of the source that are not given here.
Tests used:
estrogen receptors = test: Binding capacity of impurities to estrogen receptors; set-up: species or system human; details: impurities in Compound 1 from Process A, Route 1 after recrystallization; directly or from the product after ester hydrolysis
Procedure: (§1) Estrogen receptor binding assay: A suitable example system is an estrogen receptor-kit manufactured by PanVera for ERIβ, which contains recombinant estrogen receptor β ligand, FLUORMONE™ ES2 (ES2), a fluorescently labeled estrogen ligand, and appropriate buffer. […] When bound to ERβ, ES2 tumbles slowly and has a high fluorescence polarization value.
(§2) The competition assay was conducted according to the manufacturer's protocol (Lit. No. L0712, Rev. 10/03). Assay reagents used were bacculovirus expressed, full length human ERβ […] in 50 mM Bis-Tris Propane (pH=9), 400 mM KCl, 2 mM DTT, 1 mM EDTA, 10% glycerol, ES2 400 nM in methanol and E2 screening buffer consisting of 100 mM potassium phosphate (pH=7.4), 100 μg/mL BGG, 0.02% NaN3. The ES2-ERβ complex was formed with 20 μL 20 nM ERβ (0.020 pmol/μL) and 20 μL 2 nM ES2 (0.002 pmol/μL). Positive control (estrogen) solution was prepared using 20 μL of a 1.0 mM stock solution in DMSO and 80 μL DMSO. In a first dilution, 50 μL of this solution is added to 50 μL of DMSO, which is followed by dilutions in 2-fold increments, to provide for a 14 point dilution curve. In a second dilution, to 4 μL of each DMSO solution from the first dilution is added 400 μL of ES2 screening buffer. […] Fluorescence polarization values are obtained using 485 nm excitation and 530 nm emission interference filters. […]

ERα = biological target: T1, ERα (Homo sapiens, UniProt P03372); test: Estrogen receptor binding assay (fluorescence polarization competition), ERα
T1 construct: bacculovirus expressed, full length human 2.8 pmol/μL ERα was used as reagent; purchased PanVera; host or cells: baculovirus expression system

ERβ = biological target: T2, ERβ (Homo sapiens, UniProt Q92731); test: Estrogen receptor binding assay (fluorescence polarization competition), ERβ
T2 construct: Assay reagents used were bacculovirus expressed, full length human ERβ; purchased PanVera; host or cells: baculovirus expression system
Procedure: as §1, §2

[1] = system: nuclear sex steroid receptors; test: Binding activity at nuclear sex steroid receptors; details: essentially free defined in b31 as Ki>10 μM
Source text: The term “binding activity” refers to the ability of a specified compound, a preparation comprising Compound 1 or impurity (or impurities) in a preparation of Compound 1 to bind to or associate with a receptor, typically a sex steroid receptor such as an androgen receptor or an estrogen receptor to effect or modulate the receptor's biological activity. Binding is usually measured in assays as the capacity of a compound, usually an impurity in a preparation comprising Compound 1, to displace a physiologically relevant ligand of a receptor (i.e., reference ligand) that is bound to that receptor in a competition assay. The reference ligand is typically a natural ligand of the receptor or an agonist of the receptor that has been labeled with a radioactive or spectroscopic probe whose presence may be queried by scintillation counting or by a spectroscopic method such as fluorescence emission or fluorescence polarization.
The radioactive probe is typically ^3H and/or ^14C, where radioactive atom(s) have replaced one or more of atoms of the ligand at positions where loss of the radiolabel would not occur to an extent under conditions of the assay that would complicate or confound interpretation of the assay results. […]

[2] = Estrogenic effects seen with Compound 1 prepared by Process A; details: Compound 1 preparation made by Process A, Route 1 (contains 17α-ethynyl-androst-5-ene-3β,17β-diol impurity)
[3] = Compound 1 essentially free of the 3β,17β-diol impurity, tested to 10 μM

T2 sequence (Q92731 whole entry): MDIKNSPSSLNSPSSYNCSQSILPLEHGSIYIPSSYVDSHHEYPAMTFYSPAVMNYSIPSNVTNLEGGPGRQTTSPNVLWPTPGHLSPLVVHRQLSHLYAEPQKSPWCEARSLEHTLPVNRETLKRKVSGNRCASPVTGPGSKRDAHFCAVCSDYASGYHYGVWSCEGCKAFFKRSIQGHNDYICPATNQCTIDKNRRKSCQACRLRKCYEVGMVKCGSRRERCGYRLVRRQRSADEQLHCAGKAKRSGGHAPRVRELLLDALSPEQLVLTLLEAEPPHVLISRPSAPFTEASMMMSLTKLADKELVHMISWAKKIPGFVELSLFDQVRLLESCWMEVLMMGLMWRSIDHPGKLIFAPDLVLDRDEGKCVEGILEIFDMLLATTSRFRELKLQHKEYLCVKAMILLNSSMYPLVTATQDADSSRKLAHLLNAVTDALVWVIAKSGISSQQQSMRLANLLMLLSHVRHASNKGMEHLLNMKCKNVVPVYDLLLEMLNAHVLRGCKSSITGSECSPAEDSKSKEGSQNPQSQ
T1 sequence (P03372 whole entry): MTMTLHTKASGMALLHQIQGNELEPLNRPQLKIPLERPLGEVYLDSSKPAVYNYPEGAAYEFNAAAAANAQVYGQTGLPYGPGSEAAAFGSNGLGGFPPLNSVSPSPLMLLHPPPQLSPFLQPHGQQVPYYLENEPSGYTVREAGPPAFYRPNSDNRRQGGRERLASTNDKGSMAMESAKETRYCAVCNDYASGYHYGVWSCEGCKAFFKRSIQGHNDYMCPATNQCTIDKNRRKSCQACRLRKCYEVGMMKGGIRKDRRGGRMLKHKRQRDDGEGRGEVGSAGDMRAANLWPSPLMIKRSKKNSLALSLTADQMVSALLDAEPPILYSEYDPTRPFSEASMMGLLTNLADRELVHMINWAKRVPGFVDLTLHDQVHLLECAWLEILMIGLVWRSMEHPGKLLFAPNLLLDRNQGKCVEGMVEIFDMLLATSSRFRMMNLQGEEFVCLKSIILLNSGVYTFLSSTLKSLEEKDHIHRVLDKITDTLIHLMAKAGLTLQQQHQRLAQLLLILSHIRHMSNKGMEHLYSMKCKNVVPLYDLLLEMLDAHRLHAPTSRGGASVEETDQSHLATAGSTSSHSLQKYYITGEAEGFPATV

SMILES | binding capacity to estrogen receptors (estrogen receptors) | binding activity at the estrogen receptor ERα (ERα; receptor binding studies) | binding activity at the estrogen receptor ERβ (ERβ; receptor binding studies) | activity at the estrogen receptor ERα (ERα; [3]) | activity at the estrogen receptor ERβ (ERβ; [3]) | binding activity at nuclear sex steroid receptors [1] | estrogenic effects [2]
C#CC1(O)CCC2C3CC=C4CC(OC(C)=O)CCC4(C)C3CCC21C (stereo not drawn) [17α-ethynyl-3β-acetoxy-androst-5-ene-17β-diol] | 0.05** |  |  |  |  |  | 
C#CC1(O)CCC2C3CC=C4CC(O)CCC4(C)C3CCC21C (stereo not drawn) [17α-ethynyl-androst-5-ene-3β,17β-diol] | 0.61** | significant binding activity | significant binding activity |  |  |  | 
C#C[C@@]1(O)CC[C@H]2[C@@H]3[C@@H](O)C=C4C[C@H](O)CC[C@]4(C)[C@H]3CC[C@@]21C [Compound 1, 17-Ethynyl-10R,13S-dimethyl 2,3,4,7,8R,9S,10,11,12,13,14S,15,16,17-hexadecahydro-1H-cyclopenta[a]phenanthrene-3R,7R,17S-triol] |  |  |  | no activity | no activity | essentially free of binding activity | estrogenic effects
